Reference: ChEMBL document CHEMBL1201862, “PubChem BioAssay data set” (2004)
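Values below derive from 48-hour exposures of cells grown in 96-well plates, with endpoints linearly interpolated between the two concentrations bracketing the appropriate inhibition level. The concentration for 50% growth inhibition is given as GI50.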 Activity calls are given as the source filed them. No stated cut-off is given here; in the data, active = GI50 up to about 1.1 µM and inactive = higher.

Legend:
Experiment in all cases: NCI anticancer screen, dose series, 48 h
[1] = tested on: RXF 631
[2] = tested on: ACHN
[3] = tested on: LOX IMVI
[4] = tested on: OVCAR-3
[5] = tested on: SW-620
[6] = tested on: KM-20L2
[7] = tested on: U-251
[8] = tested on: HCC 2998
[9] = tested on: HCT-15
[10] = tested on: SK-OV-3
[11] = tested on: IGROV-1
[12] = tested on: HOP-92
[13] = tested on: HT-29
[14] = tested on: OVCAR-4
[15] = tested on: NCI-H460
[16] = tested on: KM12
[17] = tested on: UACC-257
[18] = tested on: RXF 393
[19] = tested on: CAKI-1
[20] = tested on: CCRF-CEM
[21] = tested on: A498
[22] = tested on: EKVX
[23] = tested on: NCI-H226
[24] = tested on: SF-295
[25] = tested on: MOLT-4
[26] = tested on: 786-0
[27] = tested on: OVCAR-5
[28] = tested on: SK-MEL-2
[29] = tested on: SR
[30] = tested on: LXFL 529
[31] = tested on: SF-539
[32] = tested on: M19-MEL
[33] = tested on: SF-268
[34] = tested on: OVCAR-8
[35] = tested on: A549
[36] = tested on: DLD-1
[37] = tested on: M14
[38] = tested on: Malme-3M
[39] = tested on: K562
[40] = tested on: HOP-62
[41] = tested on: NCI-H522
[42] = tested on: SNB-75
[43] = tested on: XF498
[44] = tested on: DMS-273
[45] = tested on: SK-MEL-5
[46] = tested on: NCI-H23
[47] = tested on: HL-60
[48] = tested on: UO-31
[49] = tested on: UACC-62
[50] = tested on: SK-MEL-28
[51] = tested on: RPMI-8226
[52] = tested on: SN12C
[53] = tested on: COLO 205
[54] = tested on: HOP-18
[55] = tested on: TK-10
[56] = tested on: HCT-116
[57] = tested on: SNB-19

CCN(CC)CCSc1c2ccccc2nc2cc(NCC(=O)Nc3ccccc3-c3ccccc3NC(=O)CNc3ccc4c(SCCN(CC)CC)c5ccccc5nc4c3)ccc12
GI50 [1]: > 100 µM (inactive) | GI50 [2]: > 100 µM (inactive) | GI50 [3]: > 76.6 µM (inactive) | GI50 [4]: > 100 µM (inactive) | GI50 [5]: > 100 µM (inactive) | GI50 [6]: > 100 µM (inactive) | GI50 [7]: > 100 µM (inactive) | GI50 [8]: > 100 µM (inactive) | GI50 [9]: > 100 µM | GI50 [10]: > 100 µM (inactive) | GI50 [11]: > 100 µM (inactive) | GI50 [12]: > 100 µM (inactive) | GI50 [13]: > 100 µM (inactive) | GI50 [14]: > 88.9 µM (inactive) | GI50 [15]: > 100 µM (inactive) | GI50 [16]: > 74.8 µM (inactive) | GI50 [17]: > 100 µM (inactive) | GI50 [18]: > 100 µM (inactive) | GI50 [19]: > 100 µM (inactive) | GI50 [20]: 24.9 µM (inactive) | GI50 [21]: > 100 µM (inactive) | GI50 [22]: > 100 µM (inactive) | GI50 [23]: > 100 µM (inactive) | GI50 [24]: > 100 µM (inactive) | GI50 [25]: 23.2 µM (inactive) | GI50 [26]: > 92.9 µM (inactive) | GI50 [27]: > 100 µM (inactive) | GI50 [28]: > 100 µM (inactive) | GI50 [29]: 34.1 µM (inactive) | GI50 [30]: > 91 µM (inactive) | GI50 [31]: > 100 µM (inactive) | GI50 [32]: 23 µM (inactive) | GI50 [33]: > 100 µM (inactive) | GI50 [34]: > 100 µM (inactive) | GI50 [35]: > 100 µM (inactive) | GI50 [36]: > 100 µM (inactive) | GI50 [37]: > 100 µM (inactive) | GI50 [38]: > 77.3 µM (inactive) | GI50 [39]: 24 µM (inactive) | GI50 [40]: > 100 µM (inactive) | GI50 [41]: 74.6 µM (inactive) | GI50 [42]: > 77.4 µM (inactive) | GI50 [43]: > 100 µM (inactive) | GI50 [44]: > 34.7 µM (inactive) | GI50 [45]: > 100 µM (inactive) | GI50 [46]: > 100 µM (inactive) | GI50 [47]: 20.3 µM (inactive) | GI50 [48]: > 100 µM (inactive) | GI50 [49]: > 100 µM (inactive) | GI50 [50]: > 100 µM (inactive) | GI50 [51]: 53.7 µM (inactive) | GI50 [52]: > 100 µM (inactive) | GI50 [53]: > 35.2 µM (inactive) | GI50 [54]: > 100 µM (inactive) | GI50 [55]: > 100 µM (inactive) | GI50 [56]: > 78.3 µM (inactive) | GI50 [57]: > 100 µM (inactive)
